Source: publication PMC7162861, “Synthesis, cytotoxicity, pharmacokinetic profile, binding with DNA and BSA of new imidazo[1,2-a]pyrazine-benzo[d]imidazol-5-yl hybrids” (Scientific Reports, 2020)

How the values were obtained:
A549/ATCC = experiment: NCI cytotoxicity screen, Non-Small Cell Lung Cancer panel; assay type: cell-based
Protocol: (§1) Cytotoxicity was performed at National Cancer Institute (NCI), Bethesda, USA as per their protocols.

EXVX = experiment: as above; assay type: cell-based; conditions: Homo sapiens
Protocol: as §1

HOP-62 = experiment: as above; assay type: cell-based
Protocol: as §1

HOP-92 = experiment: as above; assay type: cell-based
Protocol: as §1

NCI-H460 = experiment: as above; assay type: cell-based
Protocol: as §1

NCI-522 = experiment: as above; assay type: cell-based, human
Protocol: as §1

NCI-H226 = experiment: as above; assay type: cell-based, human
Protocol: as §1

NCI-H23 = experiment: as above; assay type: cell-based, human; conditions: five dose 0.01–100 µM
Protocol: as §1

NCI-H322M = experiment: as above; assay type: cell-based, human
Protocol: as §1

COLO 205 = experiment: NCI cytotoxicity screen, Colon Cancer panel; assay type: cell-based
Protocol: as §1

HCT-116 = experiment: NCI cytotoxicity screen, Colon Cancer panel; assay type: cell-based; conditions: Homo sapiens, five dose 0.01–100 µM
Protocol: as §1

HCT-15 = experiment: NCI cytotoxicity screen, Colon Cancer panel; assay type: cell-based; conditions: Homo sapiens
Protocol: as §1

HT29 = experiment: NCI cytotoxicity screen, Colon Cancer panel; assay type: cell-based
Protocol: as §1

HCC-2998 = experiment: NCI cytotoxicity screen, Colon Cancer panel; assay type: cell-based, human
Protocol: as §1

KM12 = experiment: NCI cytotoxicity screen, Colon Cancer panel; assay type: cell-based, human; conditions: five dose 0.01–100 µM
Protocol: as §1

SW-620 = experiment: NCI cytotoxicity screen, Colon Cancer panel; assay type: cell-based, human; conditions: five dose 0.01–100 µM
Protocol: as §1

LOX IMVI = experiment: NCI cytotoxicity screen, Melanoma panel; assay type: cell-based, human
Protocol: as §1

M14 = experiment: NCI cytotoxicity screen, Melanoma panel; assay type: cell-based, human
Protocol: as §1

UACC-62 = experiment: NCI cytotoxicity screen, Melanoma panel; assay type: cell-based, human; conditions: five dose 0.01–100 µM
Protocol: as §1

MALME-3M = experiment: NCI cytotoxicity screen, Melanoma panel; assay type: cell-based
Protocol: as §1

MDA-MB-435 = experiment: NCI cytotoxicity screen, Melanoma panel; assay type: cell-based; conditions: MDA-MB-435
Protocol: as §1

SK-MEL-28 = experiment: NCI cytotoxicity screen, Melanoma panel; assay type: cell-based
Protocol: as §1

SK-MEL-2 = experiment: NCI cytotoxicity screen, Melanoma panel; assay type: cell-based
Protocol: as §1

SK-MEL-5 = experiment: NCI cytotoxicity screen, Melanoma panel; assay type: cell-based
Protocol: as §1

UACC-257 = experiment: NCI cytotoxicity screen, Melanoma panel; assay type: cell-based
Protocol: as §1

IGROV1 = experiment: NCI cytotoxicity screen, Ovarian Cancer panel; assay type: cell-based; conditions: Homo sapiens, IGROV-1, five dose 0.01–100 µM
Protocol: as §1

NCI/ADR-RES = experiment: NCI cytotoxicity screen, Ovarian Cancer panel; assay type: cell-based
Protocol: as §1

OVCAR-8 = experiment: NCI cytotoxicity screen, Ovarian Cancer panel; assay type: cell-based
Protocol: as §1

SK-OV-3 = experiment: NCI cytotoxicity screen, Ovarian Cancer panel; assay type: cell-based
Protocol: as §1

786-0 = experiment: NCI cytotoxicity screen, Renal Cancer panel; assay type: cell-based, human; conditions: five dose 0.01–100 µM
Protocol: as §1

TK-10 = experiment: NCI cytotoxicity screen, Renal Cancer panel; assay type: cell-based, human; conditions: five dose 0.01–100 µM
Protocol: as §1

A498 = experiment: NCI cytotoxicity screen, Renal Cancer panel; assay type: cell-based
Protocol: as §1

ACHN = experiment: NCI cytotoxicity screen, Renal Cancer panel; assay type: cell-based
Protocol: as §1

CAKI-1 = experiment: NCI cytotoxicity screen, Renal Cancer panel; assay type: cell-based
Protocol: as §1

RXF 393 = experiment: NCI cytotoxicity screen, Renal Cancer panel; assay type: cell-based
Protocol: as §1

SN12C = experiment: NCI cytotoxicity screen, Renal Cancer panel; assay type: cell-based
Protocol: as §1

UO-31 = experiment: NCI cytotoxicity screen, Renal Cancer panel; assay type: cell-based
Protocol: as §1

BT-549 = experiment: NCI cytotoxicity screen, Breast Cancer panel; assay type: cell-based
Protocol: as §1

HS 578 T = experiment: NCI cytotoxicity screen, Breast Cancer panel; assay type: cell-based
Protocol: as §1

MCF7 = experiment: NCI cytotoxicity screen, Breast Cancer panel; assay type: cell-based
Protocol: as §1

MDA-MB-231/ATCC = experiment: NCI cytotoxicity screen, Breast Cancer panel; assay type: cell-based
Protocol: as §1

MDA-MB-468 = experiment: NCI cytotoxicity screen, Breast Cancer panel; assay type: cell-based; conditions: Homo sapiens, five dose 0.01–100 µM
Protocol: as §1

T-47D = experiment: NCI cytotoxicity screen, Breast Cancer panel; assay type: cell-based
Protocol: as §1

[1] = Experimental log P, shake-flask method; assay type: physicochemical; conditions: n-octanol/phosphate buffer pH 7.4, read-out: Exp. Log P
Procedure, shortened: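 Shake-flask partitioning between n-octanol and phosphate buffer pH 7.4, shaken 50 min, then centrifuged 35 min at 2500 rpm. Buffer-phase absorbance at each compound's λmax measured before and after partitioning. P calculated from absorbance drop and phase volume ratio.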

[2] = Homo sapiens, five dose 0.01–100 µM, read-out: LC50 (the source's name)
[3] = Homo sapiens, five dose 0.01–100 µM

c1cn2cc(-c3ccc4ncn(C5CCCCC5)c4c3)nc(-c3ccc4c(c3)ncn4C3CCCCC3)c2n1 [Compound 31, 8-(1-cyclohexyl-1H-benzo[d]imidazol-5-yl)-6-(1-cyclohexyl-1H-benzo[d]imidazol-6-yl)imidazo[1,2-a]pyrazine]
TGI (A549/ATCC; A549/ATCC, five dose 0.01–100 µM): 3.54 µM | GI50 (A549/ATCC; Homo sapiens, A549): 1940 nM | CC50 (A549/ATCC; Homo sapiens, A549/ATCC, five dose 0.01–100 µM, read-out: LC50 (the source's name)): 6.46 µM | GI50 (EXVX): 1970 nM | GI50 (HOP-62; Homo sapiens): 2000 nM | CC50 (HOP-62; [2]): 6.9 µM | TGI (HOP-62; five dose 0.01–100 µM): 3.72 µM | GI50 (HOP-92; Homo sapiens): 1540 nM | LC50 (HOP-92; [3]): 6.73 µM | TGI (HOP-92; five dose 0.01–100 µM): 3.22 µM | GI50 (NCI-H460; Homo sapiens): 1980 nM | CC50 (NCI-H460; [2]): 8.16 µM | TGI (NCI-H460; five dose 0.01–100 µM): 4.02 µM | GI50 (NCI-522; Homo sapiens): 1740 nM | TGI (NCI-522; NCI-522, five dose 0.01–100 µM): 3.40 µM | GI50 (NCI-H226; Homo sapiens): 1690 nM | TGI (NCI-H226; five dose 0.01–100 µM): 3.79 µM | GI50 (NCI-H23; Homo sapiens): 2010 nM | TGI (NCI-H23): 4.09 µM | GI50 (NCI-H322M; Homo sapiens): 1910 nM | inhibition at 10 µM (NCI-H322M; Homo sapiens, single dose 10 µM, negative = lethal, read-out: Percent growth inhibition): 98.8% | TGI (NCI-H322M; five dose 0.01–100 µM): 4.14 µM | GI50 (COLO 205; Homo sapiens): 1930 nM | LC50 (COLO 205; [3]): 7.44 µM | TGI (COLO 205; five dose 0.01–100 µM): 3.79 µM | GI50 (HCT-116): 1700 nM | GI50 (HCT-15): 2070 nM | TGI (HT29; HT29, five dose 0.01–100 µM): 5.20 µM | GI50 (HT29; Homo sapiens, HT-29): 2440 nM | CC50 (HT29; Homo sapiens, HT-29, HT29, five dose 0.01–100 µM, read-out: LC50 (the source's name)): > 1000 nM | TGI (HCC-2998; HCC-2998, five dose 0.01–100 µM): 3.46 µM | GI50 (HCC-2998; Homo sapiens, HCC 2998): 1810 nM | GI50 (KM12; Homo sapiens): 2010 nM | TGI (KM12): 3.83 µM | GI50 (SW-620; Homo sapiens): 2080 nM | TGI (SW-620): 3.97 µM | GI50 (LOX IMVI; Homo sapiens): 1680 nM | TGI (LOX IMVI; five dose 0.01–100 µM): 3.22 µM | GI50 (M14; Homo sapiens): 1770 nM | TGI (M14; five dose 0.01–100 µM): 3.65 µM | GI50 (UACC-62; Homo sapiens): 1700 nM | TGI (UACC-62): 3.36 µM | GI50 (MALME-3M; Homo sapiens, Malme-3M): 2110 nM | CC50 (MALME-3M; Homo sapiens, MALME-3M, five dose 0.01–100 µM, read-out: LC50 (the source's name)): 6.68 µM | TGI (MALME-3M; MALME-3M, five dose 0.01–100 µM): 3.75 µM | GI50 (MDA-MB-435; Homo sapiens): 1770 nM | CC50 (MDA-MB-435; [2]): 7.11 µM | TGI (MDA-MB-435; five dose 0.01–100 µM): 3.55 µM | GI50 (SK-MEL-28; Homo sapiens): 1810 nM | CC50 (SK-MEL-28; [2]): 6.43 µM | TGI (SK-MEL-28; five dose 0.01–100 µM): 3.41 µM | GI50 (SK-MEL-2; Homo sapiens): 1740 nM | CC50 (SK-MEL-2; [2]): 6.45 µM | TGI (SK-MEL-2; five dose 0.01–100 µM): 3.35 µM | GI50 (SK-MEL-5; Homo sapiens): 1490 nM | CC50 (SK-MEL-5; [2]): 5.39 µM | TGI (SK-MEL-5; five dose 0.01–100 µM): 2.83 µM | GI50 (UACC-257; Homo sapiens): 2100 nM | LC50 (UACC-257; [3]): 6.24 µM | TGI (UACC-257; five dose 0.01–100 µM): 3.62 µM | GI50 (IGROV1): 2040 nM | GI50 (NCI/ADR-RES; Homo sapiens): 2340 nM | CC50 (NCI/ADR-RES; [2]): > 1000 nM | inhibition at 10 µM (NCI/ADR-RES; Homo sapiens, read-out: Percent growth inhibition): 98.9% | TGI (NCI/ADR-RES; five dose 0.01–100 µM): 7.33 µM | GI50 (OVCAR-8; Homo sapiens): 2550 nM | CC50 (OVCAR-8; [2]): > 1000 nM | TGI (OVCAR-8; five dose 0.01–100 µM): 9.49 µM | GI50 (SK-OV-3; Homo sapiens): 2270 nM | CC50 (SK-OV-3; [2]): 7.42 µM | TGI (SK-OV-3; five dose 0.01–100 µM): 4.10 µM | GI50 (786-0; Homo sapiens): 1730 nM | TGI (786-0): 3.47 µM | GI50 (TK-10; Homo sapiens): 2020 nM | TGI (TK-10): 3.65 µM | GI50 (A498; Homo sapiens): 1770 nM | CC50 (A498; [2]): 5.85 µM | TGI (A498; five dose 0.01–100 µM): 3.22 µM | GI50 (ACHN; Homo sapiens): 1680 nM | CC50 (ACHN; [2]): 5.61 µM | TGI (ACHN; five dose 0.01–100 µM): 3.07 µM | TGI (CAKI-1; CAKI-1, five dose 0.01–100 µM): 2.95 µM | GI50 (CAKI-1; Homo sapiens, CAKI-1): 1460 nM | inhibition at 10 µM (CAKI-1; Homo sapiens, CAKI-1, read-out: Percent growth inhibition): 82.8% | CC50 (CAKI-1; Homo sapiens, CAKI-1, five dose 0.01–100 µM, read-out: LC50 (the source's name)): 5.97 µM | GI50 (RXF 393; Homo sapiens): 1510 nM | CC50 (RXF 393; [2]): 5.94 µM | TGI (RXF 393; five dose 0.01–100 µM): 2.99 µM | GI50 (SN12C; Homo sapiens): 2050 nM | CC50 (SN12C; [2]): > 1000 nM | TGI (SN12C; five dose 0.01–100 µM): 4.53 µM | GI50 (UO-31; Homo sapiens): 1490 nM | CC50 (UO-31; [2]): 5.46 µM | TGI (UO-31; five dose 0.01–100 µM): 2.85 µM | GI50 (BT-549; Homo sapiens): 1940 nM | CC50 (BT-549; [2]): 6.82 µM | TGI (BT-549; five dose 0.01–100 µM): 3.64 µM | TGI (HS 578 T; HS 578 T, five dose 0.01–100 µM): 6.74 µM | GI50 (HS 578 T; Homo sapiens, Hs-578T): 2390 nM | inhibition at 10 µM (HS 578 T; Homo sapiens, Hs-578T, read-out: Percent growth inhibition): 96.6% | CC50 (HS 578 T; Homo sapiens, HS 578 T, five dose 0.01–100 µM, read-out: LC50 (the source's name)): > 1000 nM | GI50 (MCF7; Homo sapiens): 1800 nM | CC50 (MCF7; [2]): > 1000 nM | TGI (MCF7; five dose 0.01–100 µM): 4.58 µM | GI50 (MDA-MB-231/ATCC; Homo sapiens, MDA-MB-231): 1290 nM | CC50 (MDA-MB-231/ATCC; Homo sapiens, MDA-MB-231/ATCC, five dose 0.01–100 µM, read-out: LC50 (the source's name)): 7.33 µM | TGI (MDA-MB-231/ATCC; MDA-MB-231/ATCC, five dose 0.01–100 µM): 3.08 µM | GI50 (MDA-MB-468): 2320 nM | CC50 (MDA-MB-468; read-out: LC50 (the source's name)): > 1000 nM | GI50 (T-47D; Homo sapiens, T47D): 1900 nM | CC50 (T-47D; Homo sapiens, T47D, T-47D, five dose 0.01–100 µM, read-out: LC50 (the source's name)): > 1000 nM | TGI (T-47D; T-47D, five dose 0.01–100 µM): 4.69 µM | logP [1]: 1.77
